Source: PubChem BioAssay (NCI)
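Grown in 96-well plates, cells were treated for 48 hours with each compound at five concentrations. Insufficient inhibition: endpoint recorded as highest concentration tested. At the TGI there is no net growth.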

Tests used:
Experiment in all cases: NCI anticancer screen, dose series, 48 h
[1] = tested on: MDA-MB-435
[2] = tested on: DU-145 prostate
[3] = tested on: U251 CNS
[4] = tested on: LOX IMVI melanoma
[5] = tested on: A549 NSCLC
[6] = tested on: OVCAR-5 ovarian
[7] = tested on: MALME-3M melanoma
[8] = tested on: OVCAR-8 ovarian
[9] = tested on: TK-10 renal
[10] = tested on: MDA-MB-231 breast
[11] = tested on: RPMI-8226 leukemia
[12] = tested on: SNB-19 CNS
[13] = tested on: UACC-257 melanoma
[14] = tested on: HOP-92 NSCLC
[15] = tested on: SK-MEL-5 melanoma
[16] = tested on: OVCAR-3 ovarian
[17] = tested on: SW-620 colon
[18] = tested on: M14 melanoma
[19] = tested on: KM12 colon
[20] = tested on: ACHN renal
[21] = tested on: UO-31 renal
[22] = tested on: SK-OV-3 ovarian
[23] = tested on: BT-549 breast
[24] = tested on: NCI/ADR-RES ovarian
[25] = tested on: HOP-62 NSCLC
[26] = tested on: NCI-H23 lung
[27] = tested on: A498 renal
[28] = tested on: SF-539 CNS
[29] = tested on: OVCAR-4 ovarian
[30] = tested on: PC-3 prostate
[31] = tested on: SR leukemia
[32] = tested on: T-47D breast
[33] = tested on: HS 578T breast
[34] = tested on: IGROV1 ovarian
[35] = tested on: NCI-H226 lung
[36] = tested on: MOLT-4 leukemia
[37] = tested on: SK-MEL-28 melanoma
[38] = tested on: SF-268 CNS
[39] = tested on: HT29 colon
[40] = tested on: HCC-2998 colon
[41] = tested on: HCT-116 colon
[42] = tested on: NCI-H460 lung
[43] = tested on: HCT-15 colon
[44] = tested on: EKVX NSCLC
[45] = tested on: CAKI-1 renal
[46] = tested on: SN12C renal
[47] = tested on: MCF7 breast
[48] = tested on: SF-295 CNS
[49] = tested on: NCI-H522 lung
[50] = tested on: SNB-75 CNS
[51] = tested on: MDA-N
[52] = tested on: UACC-62 melanoma
[53] = tested on: 786-0 renal
[54] = tested on: SK-MEL-2 melanoma
[55] = tested on: K-562 leukemia
[56] = tested on: HL-60(TB) leukemia
[57] = tested on: CCRF-CEM leukemia
[58] = tested on: COLO 205 colon

Cc1cc2c(cc1N)C(C)C1(CCC(=O)N2Cc2ccccc2)OCCO1 (stereo not given)
TGI [1]: > 100 µM
TGI [2]: > 100 µM
TGI [3]: > 100 µM
TGI [4]: > 100 µM
TGI [5]: > 100 µM
TGI [6]: > 100 µM
TGI [7]: > 100 µM
TGI [8]: > 100 µM
TGI [9]: > 100 µM
TGI [10]: > 100 µM
TGI [11]: > 100 µM
TGI [12]: > 100 µM
TGI [13]: > 100 µM
TGI [14]: > 100 µM
TGI [15]: > 100 µM
TGI [16]: > 100 µM
TGI [17]: > 100 µM
TGI [18]: > 100 µM
TGI [19]: > 100 µM
TGI [20]: > 100 µM
TGI [21]: > 100 µM
TGI [22]: > 100 µM
TGI [23]: > 100 µM
TGI [24]: > 100 µM
TGI [25]: > 100 µM
TGI [26]: > 100 µM
TGI [27]: > 100 µM
TGI [28]: > 100 µM
TGI [29]: > 100 µM
TGI [30]: > 100 µM
TGI [31]: > 100 µM
TGI [32]: > 100 µM
TGI [33]: > 100 µM
TGI [34]: > 100 µM
TGI [35]: > 100 µM
TGI [36]: > 100 µM
TGI [37]: > 100 µM
TGI [38]: > 100 µM
TGI [39]: > 100 µM
TGI [40]: > 100 µM
TGI [41]: > 100 µM
TGI [42]: > 100 µM
TGI [43]: > 100 µM
TGI [44]: > 100 µM
TGI [45]: > 100 µM
TGI [46]: > 100 µM
TGI [47]: > 100 µM
TGI [48]: > 100 µM
TGI [49]: > 100 µM
TGI [50]: > 100 µM
TGI [51]: > 100 µM
TGI [52]: > 100 µM
TGI [53]: > 100 µM
TGI [54]: > 100 µM

C=CS(=O)(=O)CCN1CC1
TGI [1]: > 10 µM
TGI [55]: > 10 µM
TGI [2]: > 10 µM
TGI [3]: > 10 µM
TGI [4]: > 10 µM
TGI [5]: > 10 µM
TGI [6]: > 10 µM
TGI [7]: > 10 µM
TGI [8]: > 10 µM
TGI [9]: > 10 µM
TGI [10]: > 10 µM
TGI [11]: > 10 µM
TGI [13]: > 10 µM
TGI [14]: > 10 µM
TGI [15]: > 10 µM
TGI [16]: > 10 µM
TGI [17]: > 10 µM
TGI [18]: > 10 µM
TGI [19]: > 10 µM
TGI [20]: > 10 µM
TGI [22]: > 10 µM
TGI [23]: > 10 µM
TGI [24]: > 10 µM
TGI [25]: > 10 µM
TGI [26]: > 10 µM
TGI [28]: > 10 µM
TGI [29]: > 10 µM
TGI [30]: > 10 µM
TGI [31]: > 10 µM
TGI [32]: > 10 µM
TGI [33]: > 10 µM
TGI [34]: > 10 µM
TGI [56]: > 10 µM
TGI [36]: > 10 µM
TGI [37]: > 10 µM
TGI [38]: > 10 µM
TGI [39]: > 10 µM
TGI [40]: > 10 µM
TGI [41]: > 10 µM
TGI [43]: > 10 µM
TGI [45]: > 10 µM
TGI [46]: > 10 µM
TGI [47]: > 10 µM
TGI [48]: > 10 µM
TGI [57]: > 10 µM
TGI [49]: > 10 µM
TGI [50]: > 10 µM
TGI [58]: > 10 µM
TGI [51]: > 10 µM
TGI [52]: > 10 µM
TGI [53]: > 10 µM
